Assay results taken from US11964953B2, “Substituted aminothiazoles as DGKzeta inhibitors for immune activation” (Bayer Aktiengesellschaft, priority 2020, dated 2024).

Biological target: human DGKζ (Homo sapiens (Human), UniProt Q13574)
Assay: Human DGKζ kinase activity inhibition assay (ADP-Glo)
Format: biochemical
Settings: in vitro human DGKζ kinase activity inhibition assay; read-out: IC50
Procedure: Human DGKζ Kinase Activity Inhibition Assay. Human diacylglycerol kinase zeta (DGKζ) inhibitory activity of compounds of the present invention was quantified employing the human DGKζ kinase activity assay as described in the following paragraphs. In essence, the enzyme activity was measured by quantification of the adenosine-di-phosphate (ADP) generated as a co-product of the enzyme reaction via the “ADP-Glo™ Kinase Assay” kit from the company Promega. This detection system works as follows: In a first step the adenosine-tri-phosphate (ATP) not consumed in the kinase reaction is quantitatively converted to cyclic adenosine-mono-phosphate (cAMP) employing an adenylate cyclase (“ADP-Glo-reagent”), then the adenylate cyclase is stopped and the ADP generated in the kinase reaction is converted to ATP, which subsequently generates in a luciferase-based reaction a glow-luminescence signal (“Kinase Detection Reagent”). C-terminally FLAG-tagged, recombinant full-length human DGKζ (in house expressed in baculovirus infected insect cells, purified using anti-Flag pulldown and size exclusion chromatography) was used as enzyme. As an alternative, commercially available enzyme by Carnabio can be used. […] Subsequently, 22.55 volumes of a 510 mM solution of octyl-β-D-glucopyranoside (Sigma-Aldrich, Cat. #O8001-10G) in 50 mM MOPS buffer (pH 7.4) were added, and the mixture was sonicated in an ultrasonic bath for 20 s. […] Viewlux™ from Perkin-Elmer). The amount of emitted light was taken as a measure for the amount of ADP generated and thereby for the activity of the DGKζ.

Chain of human DGKζ (Q13574 other isoform, or with tags, fused parts or gaps): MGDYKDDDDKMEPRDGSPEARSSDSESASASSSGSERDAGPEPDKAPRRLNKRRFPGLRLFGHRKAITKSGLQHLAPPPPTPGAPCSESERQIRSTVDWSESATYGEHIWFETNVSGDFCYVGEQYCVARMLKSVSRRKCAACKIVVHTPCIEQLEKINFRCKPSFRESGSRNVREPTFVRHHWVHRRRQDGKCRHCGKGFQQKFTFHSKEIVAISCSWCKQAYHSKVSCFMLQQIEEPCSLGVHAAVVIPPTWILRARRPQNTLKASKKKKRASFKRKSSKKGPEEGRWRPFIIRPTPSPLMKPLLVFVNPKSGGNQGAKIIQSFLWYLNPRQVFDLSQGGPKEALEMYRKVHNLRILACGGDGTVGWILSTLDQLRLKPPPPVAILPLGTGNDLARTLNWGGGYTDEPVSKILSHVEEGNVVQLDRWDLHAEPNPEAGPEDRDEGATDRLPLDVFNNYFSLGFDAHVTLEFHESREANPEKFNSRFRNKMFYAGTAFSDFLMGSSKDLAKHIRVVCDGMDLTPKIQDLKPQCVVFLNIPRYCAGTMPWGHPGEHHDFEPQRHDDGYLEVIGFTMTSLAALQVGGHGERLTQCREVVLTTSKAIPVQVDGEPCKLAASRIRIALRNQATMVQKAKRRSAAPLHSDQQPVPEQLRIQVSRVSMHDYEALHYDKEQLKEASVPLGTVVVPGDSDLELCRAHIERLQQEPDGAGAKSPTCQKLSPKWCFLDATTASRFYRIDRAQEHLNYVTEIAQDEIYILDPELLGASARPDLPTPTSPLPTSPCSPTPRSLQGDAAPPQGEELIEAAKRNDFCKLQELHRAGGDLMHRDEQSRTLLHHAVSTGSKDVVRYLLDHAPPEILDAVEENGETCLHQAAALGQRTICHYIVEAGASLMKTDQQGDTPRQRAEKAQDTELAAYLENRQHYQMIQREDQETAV

IC50 | SMILES
366 nM | CC(C(N)=O)N(c1ccc(F)cc1)c1nc(N)c(C(=O)c2ccc(OCC(=O)N3CCC[C@H]3C(N)=O)cc2)s1 (mixture of isomers) [Example 110, (2S)-1-[2-[4-[4-amino-2-(N-[2-amino-(1RS)-methyl-2-oxo-ethyl]-4-fluoro-anilino)thiazole-5-carbonyl]phenoxy]acetyl]pyrrolidine-2-carboxamide]
539 nM | CC(C(N)=O)N(c1ccc(F)cc1)c1nc(N)c(C(=O)c2ccc(C(=O)NC[C@H](C)O)cc2)s1 (mixture of isomers) [Example 263, 4-[4-amino-2-(N-(2-amino-1-methyl-2-oxo-ethyl)-4-fluoro-anilino)thiazole-5-carbonyl]-N-[(2S)-2-hydroxypropyl]benzamide (mixture of stereoisomers)]
459 nM | CC(C(N)=O)N(c1ccc(F)cc1)c1nc(N)c(C(=O)c2ccc(C(=O)NC[C@@H](C)O)cc2)s1 (mixture of isomers) [Example 265, 4-[4-amino-2-(N-(2-amino-1-methyl-2-oxo-ethyl)-4-fluoro-anilino)thiazole-5-carbonyl]-N-[(2R)-2-hydroxypropyl]benzamide (mixture of stereoisomers)]
946 nM | COc1ccc(N(c2nc(N)c(C(=O)c3ccccc3)s2)C(C)C(N)=O)c(C)c1 (racemic) [Example 1, rac-2-(N-(4-amino-5-benzoyl-thiazol-2-yl)-4-methoxy-2-methyl-anilino)propanamide]
935 nM | CC(C(N)=O)N(c1ccc(N(C)C)cc1)c1nc(N)c(C(=O)c2ccccc2)s1 (racemic) [Example 2, rac-2-[N-(4-amino-5-benzoyl-thiazol-2-yl)-4-(dimethylamino)anilino]propanamide]
927 nM | CC(C)Oc1ccc(N(c2nc(N)c(C(=O)c3ccccc3)s2)C(C)C(N)=O)cc1 (racemic) [Example 3, rac-2-(N-(4-amino-5-benzoyl-thiazol-2-yl)-4-isopropoxy-anilino)propanamide]
833 nM | CC(C(N)=O)N(c1nc(N)c(C(=O)c2ccccc2)s1)c1c(F)cc(F)cc1F (racemic) [Example 4, rac-2-(N-(4-amino-5-benzoyl-thiazol-2-yl)-2,4,6-trifluoro-anilino)propanamide]
757 nM | CC(C(N)=O)N(c1nc(N)c(C(=O)c2ccccc2)s1)c1ccc(F)cc1Br (racemic) [Example 5, rac-2-(N-(4-amino-5-benzoyl-thiazol-2-yl)-2-bromo-4-fluoro-anilino)propanamide]
740 nM | Cc1ccc(C(=O)c2sc(N(c3ccc(F)cc3)C(C)C(N)=O)nc2N)cn1 (racemic) [Example 6, rac-2-(N-[4-amino-5-(6-methylpyridine-3-carbonyl)thiazol-2-yl]-4-fluoro-anilino)propanamide]
705 nM | CC(C(N)=O)N(c1ccc(F)cc1)c1nc(N)c(C(=O)c2ccncc2)s1 (racemic) [Example 7, rac-2-(N-[4-amino-5-(pyridine-4-carbonyl)thiazol-2-yl]-4-fluoro-anilino)propanamide]
618 nM | CC(C(N)=O)N(c1ccc(F)cc1)c1nc(N)c(C(=O)c2ccccc2F)s1 (racemic) [Example 8, rac-2-(N-[4-amino-5-(2-fluorobenzoyl)thiazol-2-yl]-4-fluoro-anilino)propanamide]
536 nM | CC(C(N)=O)N(c1ccc(C#N)cc1)c1nc(N)c(C(=O)c2ccccc2)s1 (racemic) [Example 9, rac-2-(N-(4-amino-5-benzoyl-thiazol-2-yl)-4-cyano-anilino)propanamide]
425 nM | CC(C(N)=O)N(c1ccc(F)cc1)c1nc(N)c(C(=O)c2ccc(Cl)c(C(F)(F)F)c2)s1 (racemic) [Example 10, rac-2-(N-[4-amino-5-[4-chloro-3-(trifluoromethyl)benzoyl]thiazol-2-yl]-4-fluoro-anilino)propanamide]
406 nM | CC(C(N)=O)N(c1nc(N)c(C(=O)c2ccccc2)s1)c1ccc(F)cc1Cl (racemic) [Example 11, rac-2-(N-(4-amino-5-benzoyl-thiazol-2-yl)-2-chloro-4-fluoro-anilino)propanamide]
364 nM | CC(C(N)=O)N(c1ccc(F)cc1)c1nc(N)c(C(=O)c2cccc(C#N)c2)s1 (racemic) [Example 12, rac-2-(N-[4-amino-5-(3-cyanobenzoyl)thiazol-2-yl]-4-fluoro-anilino)propanamide]
357 nM | CC(C(N)=O)N(c1ccc(N(C)C)c(Cl)c1)c1nc(N)c(C(=O)c2ccccc2)s1 (racemic) [Example 13, rac-2-[N-(4-amino-5-benzoyl-thiazol-2-yl)-3-chloro-4-(dimethylamino)anilino]propanamide]

IC50 | SMILES
334 nM | COc1ccc(C(=O)c2sc(N(c3ccc(F)cc3)C(C)C(N)=O)nc2N)cn1 (racemic) [Example 14, rac-2-(N-[4-amino-5-(6-methoxypyridine-3-carbonyl)thiazol-2-yl]-4-fluoro-anilino)propanamide]
266 nM | CNC(=O)c1ccc(C(=O)c2sc(N(c3ccc(F)cc3)C(C)C(N)=O)nc2N)cc1 (racemic) [Example 15, rac-4-[4-amino-2-(N-[2-amino-1-methyl-2-oxo-ethyl]-4-fluoro-anilino)thiazole-5-carbonyl]-N-methyl-benzamide]
283 nM | CC(C(N)=O)N(c1ccc(F)cc1)c1nc(N)c(C(=O)c2cccc(F)c2)s1 (racemic) [Example 16, rac-2-(N-[4-amino-5-(3-fluorobenzoyl)thiazol-2-yl]-4-fluoro-anilino)propanamide]
261 nM | COc1ccc(N(c2nc(N)c(C(=O)c3ccccc3)s2)C(C)C(N)=O)cc1Cl (racemic) [Example 17, rac-2-(N-(4-amino-5-benzoyl-thiazol-2-yl)-3-chloro-4-methoxy-anilino)propanamide]
207 nM | COc1ccc(N(c2nc(N)c(C(=O)c3ccc(F)cc3)s2)C(C)C(N)=O)cc1 (racemic) [Example 18, rac-2-(N-[4-amino-5-(4-fluorobenzoyl)thiazol-2-yl]-4-methoxy-anilino)propanamide]
200 nM | CC(C(N)=O)N(c1ccc(F)cc1)c1nc(N)c(C(=O)c2ccc(S(C)(=O)=O)cc2)s1 (racemic) [Example 19, rac-2-(N-[4-amino-5-(4-methylsulfonylbenzoyl)thiazol-2-yl]-4-fluoro-anilino)propanamide]
161 nM | CC(C(N)=O)N(c1ccc(F)cc1)c1nc(N)c(C(=O)c2ccc(-n3ccnc3)cc2)s1 (racemic) [Example 20, rac-2-(N-[4-amino-5-(4-imidazol-1-ylbenzoyl)thiazol-2-yl]-4-fluoro-anilino)propanamide]
142 nM | CC(C(N)=O)N(c1ccc(F)cc1)c1nc(N)c(C(=O)c2ccc(C#N)c(F)c2)s1 (racemic) [Example 21, rac-2-(N-[4-amino-5-(4-cyano-3-fluoro-benzoyl)thiazol-2-yl]-4-fluoro-anilino)propanamide]
130 nM | CC(C(N)=O)N(c1ccc(F)cc1)c1nc(N)c(C(=O)c2ccc(C#N)cc2F)s1 (racemic) [Example 22, rac-2-(N-[4-amino-5-(4-cyano-2-fluoro-benzoyl)thiazol-2-yl]-4-fluoro-anilino)propanamide]
130 nM | COc1ccc(C(=O)c2sc(N(c3ccc(F)cc3)C(C)C(N)=O)nc2N)c(F)c1 (racemic) [Example 23, rac-2-(N-[4-amino-5-(2-fluoro-4-methoxy-benzoyl)thiazol-2-yl]-4-fluoro-anilino)propanamide]
115 nM | CC(C(N)=O)N(c1ccc(OC(F)(F)F)cc1)c1nc(N)c(C(=O)c2ccccc2)s1 (racemic) [Example 24, rac-2-[N-(4-amino-5-benzoyl-thiazol-2-yl)-4-(trifluoromethoxy)anilino]propanamide]
101 nM | CC(C(N)=O)N(c1ccc(F)cc1)c1nc(N)c(C(=O)c2ccc(F)c(F)c2)s1 (racemic) [Example 25, rac-2-(N-[4-amino-5-(3,4-difluorobenzoyl)thiazol-2-yl]-4-fluoro-anilino)propanamide]
74.8 nM | CC(C(N)=O)N(c1ccc(F)cc1)c1nc(N)c(C(=O)c2ccc(Cl)c(Cl)c2)s1 (racemic) [Example 26, rac-2-(N-[4-amino-5-(3,4-dichlorobenzoyl)thiazol-2-yl]-4-fluoro-anilino)propanamide]
69.6 nM | CC(C(N)=O)N(c1ccc(OC(F)(F)F)cc1)c1nc(N)c(C(=O)c2ccc(F)cc2)s1 (racemic) [Example 27, rac-2-[N-[4-amino-5-(4-fluorobenzoyl)thiazol-2-yl]-4-(trifluoromethoxy)anilino]propanamide]
61 nM | CC(C(N)=O)N(c1ccc(C(F)(F)F)cc1)c1nc(N)c(C(=O)c2ccccc2)s1 (racemic) [Example 28, rac-2-[N-(4-amino-5-benzoyl-thiazol-2-yl)-4-(trifluoromethyl)anilino]propanamide]

SMILES | IC50
CC(C(N)=O)N(c1ccc(F)cc1)c1nc(N)c(C(=O)c2ccc(C(F)(F)F)nc2)s1 (racemic) [Example 29, rac-2-(N-[4-amino-5-[6-(trifluoromethyl)pyridine-3-carbonyl]thiazol-2-yl]-4-fluoro-anilino)propanamide] | 58.4 nM
